Measured values reported in paper PMC9088311, “Cyclic Thiosulfonates for Thiol-Mediated Uptake: Cascade Exchangers, Transporters, Inhibitors” (JACS Au, 2022).
Where “and” joins values, the source holds several entries; their conditions need not be identical. Equal values may be shown once. Read-outs that look alike come from different tables or passages of the source. Marks after values point to notes of the source that are not given here.

System: lentivirus with D614G SC2 spike protein, A549 cells overexpressing ACE2 and TMPRSS2
Format: cell-based, SARS-CoV-2
Set-up: key to qualitative inhibition of SC2 uptake (heatmap): –: −: inactive; ++: qualitative inhibition of SC2 uptake
Settings: for IC50: read-out: IC50 of SC2 lentivector entry

SMILES | VE, vector entry | other results
CC(=O)/C=C1/C(=O)N(C)c2ccccc21 [Compound 48, super-cinnamaldehyde, reference compound] | >100% | inhibition of SC2 lentivector entry (in words) (5 μM): weak activation rather than inhibition
CC(C)(C)[Si](C)(C)O[C@@H]1CS(=O)(=O)SC[C@@H]1O [Compound 6] | 105 ± 3% | 
O=c1c2ccccc2[se]n1-c1ccccc1 [Compound 46, Ebselen, reference compound] | 65 ± 13% | inhibition of SC2 lentivector entry (in words) (50 μM): more toxic than active
CC(C)(C)OC(=O)NCCNC(=O)O[C@H]1CSS(=O)(=O)C[C@H]1O[Si](C)(C)C(C)(C)C (racemic) [Compound 50] |  | VE, vector entry (inhibitor 5 μM (1 h), lentivirus 6 h, 3 days expression, n = 3, ±SD): 100 ± 40%
O=S1(=O)C[C@H](O)[C@H](O)CS1 (stereo in doubt) [Compound 3, (4S,5R)-4,5-dihydroxy-1,2-dithiane-1,1-dioxide] |  | inhibition of SC2 lentivector entry (in words): inactive; qualitative inhibition of SC2 uptake (heatmap): ++
CC(C)(C)[Si](C)(C)OC1CS(=O)(=O)SCC1OC(=O)NCCCCCCNC(=O)OC1CSS(=O)(=O)CC1O[Si](C)(C)C(C)(C)C (stereo not drawn) [Compound 4] | 46 ± 8% | IC50: ~10 µM and ~5 µM
O=C(O)Cn1[se]c2ccccc2c1=O [Compound 45, reference compound] | 31 ± 3% | qualitative inhibition of SC2 uptake (heatmap): ++; inhibition of SC2 lentivector entry (in words) (50 μM): more active and nontoxic
NCCNC(=O)O[C@H]1CSS(=O)(=O)C[C@H]1O [Compound 39] | 52 ± 31% | 
O=C(NCCCCCCNC(=O)O[C@H]1CSS(=O)(=O)C[C@H]1OCc1ccccc1)O[C@H]1CSS(=O)(=O)C[C@H]1OCc1ccccc1 [Compound 33] | 56 ± 12% | IC50: ~5 µM
C#CCNC(=O)CC[C@H](NC(=O)COCCNC(=O)O[C@H]1CSS(=O)(=O)C[C@H]1O[Si](C)(C)C(C)(C)C)C(=O)NCCOCCNC(=O)O[C@H]1CSS(=O)(=O)C[C@H]1O[Si](C)(C)C(C)(C)C [Compound 44] | 103 ± 12% | 
O=C(NCCCCCCNC(=O)O[C@H]1CSS(=O)(=O)C[C@H]1O)O[C@H]1CSS(=O)(=O)C[C@H]1O [Compound 41] | >100 ^f % | inhibition of SC2 lentivector entry (in words): inactive
O=C(N[C@H]1CCS(=O)(=O)SC1)N[C@H]1CCS(=O)(=O)SC1 [Compound 35] | 25 ± 3% | inhibition of SC2 lentivector entry (in words): inactivity; inhibition of SC2 lentivector entry (in words) (50 μM): high activity
O=C1O[C@H]2CSS(=O)(=O)C[C@H]2O1 [Compound 11] | 4 ± 1% | 
O=C(O)c1cc(SSc2ccc([N+](=O)[O-])c(C(=O)O)c2)ccc1[N+](=O)[O-] [Compound 16, 5,5’-Dithiobis(2-nitrobenzoic acid), reference compound] | >100% | inhibition of SC2 lentivector entry (in words) (5 μM): weak activation rather than inhibition
CC(C)(C)[Si](C)(C)O[C@H]1CS(=O)(=O)SC[C@H]1OC(=O)NCCNC(=O)CC(O)(CC(=O)NCCNC(=O)O[C@H]1CSS(=O)(=O)C[C@H]1O[Si](C)(C)C(C)(C)C)C(=O)NCCNC(=O)O[C@@H]1CSS(=O)(=O)C[C@@H]1O[Si](C)(C)C(C)(C)C (stereo partly drawn) [Compound 42] | 97 ± 15% | 
CC(C)(C)OC(=O)NCCNC(=O)O[C@H]1CSS(=O)(=O)C[C@H]1O [Compound 34] | 8 ± 6% | 
CC1(C)O[C@H]2CSS(=O)(=O)C[C@H]2O1 [Compound 13] | 80 ± 20% | 
CC(C)(C)[Si](C)(C)O[C@@H]1CS(=O)(=O)SC[C@@H]1OC(=O)NCC[N+](C)(C)C [Compound 38] | 43 ± 26% | 
O=S(O)CC(O)C(O)CSSCC(O)C(O)CS(=O)O (stereo not drawn) [Compound 37] | 42 ± 32% | 
CC(=O)O[C@H]1CSS(=O)(=O)C[C@H]1O [Compound 36] | 34 ± 3% | 
CCN1C(=O)C2SSSSC1C(=O)N2CC(=O)O (stereo not drawn) [Compound 47, reference compound] | 83 ± 12% | qualitative inhibition of SC2 uptake (heatmap): –
CCCNC(=O)O[C@H]1CSS(=O)(=O)C[C@H]1O[Si](C)(C)C(C)(C)C [Compound 43] | 99 ± 12% | inhibition of SC2 lentivector entry (in words): inactivity
CC#CI1OC(=O)c2ccccc21 [Compound 49, reference compound] | >100% | inhibition of SC2 lentivector entry (in words): did not inhibit; qualitative inhibition of SC2 uptake (heatmap): –
O=S(O)CC(O)C(O)CSSCCSSCC(O)C(O)CS(=O)O (stereo not drawn) [Compound 40] | 64 ± 25% | 
